The values below come from ChEMBL document CHEMBL3734659, “Identification of tris-(phenylalkyl)amines as new selective h5-HT2Breceptor antagonists” (Medchemcomm, 2015).

Assay [1] concerns the target Alpha-2C adrenergic receptor (Homo sapiens, UniProt P18825). The assay is described as follows: Displacement of [3H]Rauwolscine from human recombinant alpha 2C receptor stably expressed in MDCK cells after 90 mins by scintillation counting method. The assay is classed as cell-based.
Assay [2] in a line: Displacement of [3H]Pentazocine from Guinea pig sigma 1 receptor after 90 mins by scintillation counting method. The arrangement: species or system Cavia porcellus.
Assay [3] concerns the target D(3) dopamine receptor (Homo sapiens, UniProt P35462). The assay is described as follows: Displacement of [3H]N-methylspiperone from human recombinant dopamine D3 receptor expressed in HEKT cell membrane after 90 mins by scintillation counting method. The assay is classed as cell membranes.

Chain of D(3) dopamine receptor (P35462 whole entry): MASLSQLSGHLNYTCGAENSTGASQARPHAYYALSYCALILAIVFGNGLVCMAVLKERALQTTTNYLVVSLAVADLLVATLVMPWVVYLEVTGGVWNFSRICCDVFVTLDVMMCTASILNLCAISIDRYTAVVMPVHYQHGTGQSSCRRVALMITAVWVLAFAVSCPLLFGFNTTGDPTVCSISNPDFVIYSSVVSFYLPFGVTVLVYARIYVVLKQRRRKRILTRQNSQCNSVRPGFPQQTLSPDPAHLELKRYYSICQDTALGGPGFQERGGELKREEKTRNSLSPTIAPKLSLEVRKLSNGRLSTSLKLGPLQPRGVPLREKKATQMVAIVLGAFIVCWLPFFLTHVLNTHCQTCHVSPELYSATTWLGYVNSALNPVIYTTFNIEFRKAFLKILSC
Chain of Alpha-2C adrenergic receptor (P18825 whole entry): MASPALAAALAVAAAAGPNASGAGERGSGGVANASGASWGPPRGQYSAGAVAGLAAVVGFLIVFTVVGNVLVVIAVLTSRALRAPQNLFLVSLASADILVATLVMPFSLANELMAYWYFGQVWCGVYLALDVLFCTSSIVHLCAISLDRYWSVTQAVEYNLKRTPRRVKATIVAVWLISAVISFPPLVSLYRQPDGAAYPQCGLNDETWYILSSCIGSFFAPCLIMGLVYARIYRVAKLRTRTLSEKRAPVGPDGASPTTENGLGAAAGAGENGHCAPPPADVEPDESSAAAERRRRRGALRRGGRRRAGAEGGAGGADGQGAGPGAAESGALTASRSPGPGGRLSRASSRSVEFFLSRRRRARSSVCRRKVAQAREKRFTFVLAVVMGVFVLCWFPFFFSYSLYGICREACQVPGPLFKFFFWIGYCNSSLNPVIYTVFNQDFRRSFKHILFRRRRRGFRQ

For the compound `COc1ccc(CCN(CCCc2ccccc2)CCc2ccc3c(c2)OCO3)cc1OC`, the Ki in assay [1] is 429 nM; in assay [2] it was 176 nM; in assay [3], 498 nM.
